Test results taken from patent US20190269666A1, “COMBINATION THERAPY WITH MERESTINIB AND ANTI-PD-L1 OR ANTI-PD-1 INHIBITORS FOR USE IN THE TREATMENT OF CANCER” (Eli Lilly and Company, priority 2016, published 2019).

Key:
phospho-AXL (p-AXL) = target: T1, phospho-AXL (p-AXL) (Mus musculus, UniProt Q00993); assay: Mouse phospho-RTK array in CT26 cells; type: cell-based; settings: 500 nM, CT26 cells in vitro
T1 construct: CT26 cells also express high level of phospho-AXL (p-AXL) by western blot analysis; endogenous in cells; host or cells: CT26 (mouse colorectal cancer line)
T1 sequence (Q00993 19-888): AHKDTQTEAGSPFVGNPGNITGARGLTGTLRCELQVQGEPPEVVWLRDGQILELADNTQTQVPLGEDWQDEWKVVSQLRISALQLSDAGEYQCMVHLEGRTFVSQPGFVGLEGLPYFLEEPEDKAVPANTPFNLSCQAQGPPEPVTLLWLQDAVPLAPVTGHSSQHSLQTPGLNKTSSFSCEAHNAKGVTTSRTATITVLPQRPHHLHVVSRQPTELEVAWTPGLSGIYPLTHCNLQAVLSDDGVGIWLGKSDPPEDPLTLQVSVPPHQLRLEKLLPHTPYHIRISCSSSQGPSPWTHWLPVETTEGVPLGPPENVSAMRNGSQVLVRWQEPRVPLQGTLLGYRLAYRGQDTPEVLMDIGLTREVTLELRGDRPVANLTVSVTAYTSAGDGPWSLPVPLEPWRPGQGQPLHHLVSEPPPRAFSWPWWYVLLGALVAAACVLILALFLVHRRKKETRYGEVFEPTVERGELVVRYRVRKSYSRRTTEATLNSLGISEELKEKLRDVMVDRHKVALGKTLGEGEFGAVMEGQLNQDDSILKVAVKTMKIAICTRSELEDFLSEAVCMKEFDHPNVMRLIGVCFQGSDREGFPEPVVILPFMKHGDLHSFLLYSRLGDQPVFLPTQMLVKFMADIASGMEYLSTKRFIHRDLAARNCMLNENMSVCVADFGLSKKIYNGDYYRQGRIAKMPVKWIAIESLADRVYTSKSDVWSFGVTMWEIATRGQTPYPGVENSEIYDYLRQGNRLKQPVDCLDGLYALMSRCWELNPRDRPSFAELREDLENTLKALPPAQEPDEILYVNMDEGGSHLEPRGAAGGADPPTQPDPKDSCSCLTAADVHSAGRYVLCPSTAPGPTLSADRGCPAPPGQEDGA
Experimental: CT26 CRC tumor cells harbor KRAS activating mutation G12D. […] CT26 cells also express high level of phospho-AXL (p-AXL) by western blot analysis and merestinib is shown to decrease p-AXL in vitro by more than 60% at a concentration of 500 nM in the mouse phospho-RTK array, but show very little effect on CT26 cell proliferation (IC50>20 μM).

[1] = tested on: CT26 colorectal cancer model; assay: Study S010516: merestinib and anti-PD-L1 antibody combinations in CT26 syngeneic mouse tumor model; type: in vivo; set-up: key to Mean Tumor Volume: mm³; tumor volume v = l×w²×0.536; settings: for Mean Tumor Volume: in mm³ (unit assumed)
Experimental: A syngeneic mouse tumor model is used to evaluate potential combination effect of merestinib and anti-PD-L1 antibody is the CT26 colorectal cancer model using the mouse colorectal cancer line CT26. This experiment is conducted in immune competent mice (Grosso and Jure-Kunkel, Cancer Immunity Vol. 13, p. 5, January 2013; Duraiswamy et al, Cancer Research, Jun. 15, 2013 73; 3591.). Anti-PD-L1 antibody surrogate (178G7, LSN3370181) (Eppihimer et al. Microcirculation 2002:9(2):133) is used in the mouse study.
Female BALB/c mice (18-20 gm) from Envigo (Harlan Laboratories) are used for this study. Food and water are available ad libitum. Animals are acclimated for one week prior to any experimental manipulation. The study is performed in accordance with AALAC accredited institutional guidelines.
Merestinib is formulated as a solution in 10% PEG 400 in 90% (20% Captisol in water) once weekly. Anti-PD-L1 antibody (178G7, LSN3370181) is formulated in PBS (phosphate buffered saline).
CT26 cells (from internal in vivo pharmacology cell culture group lot CT26.WT.3184878) are used for implantation. Approximately 1×10^6 cells in HBSS are implanted subcutaneously into the right hind flank of the animal under anesthesia.
Study S010516 has six groups: 1) vehicle control (10% PEG 400 in 90% [20% Captisol in water]) dosed orally once daily for 21 days and dosing initiated at Day 6 post-implant of CT26 cells; 2) single agent anti-PD-L1 antibody (178G7, LSN3370181) dosing via IP at 500 μg/animal once weekly for 3 weeks initiated at Day 6 post-implant of CT26 cells; 3) single agent merestinib at 12 mg/kg once daily orally for 21 days and initiated at Day 6 post-implant of CT26 cells; 4) concurrent combination of merestinib (12 mg/kg once daily for 21 days orally) and anti-PD-L1 antibody (500 μg/animal once weekly via IP for 3 weeks) and initiated at Day 6 post-implant of CT26 cells; 5) sequential combination of merestinib (12 mg/kg once daily for 21 days orally and initiated at Day 6 post-implant of CT26 cells) and anti-PD-L1 antibody (500 μg/animal once weekly via IP for 3 weeks and initiated at Day 13 post-implant of CT26 cells); 6) delayed concurrent combination of merestinib (12 mg/kg once daily for 21 days orally) and anti-PD-L1 antibody (500 μg/animal once weekly via IP for 3 weeks) and initiated at Day 10 post-implant of CT26 cells.
There are 15 animals per group. Five animals per group are taken down on Day 20 post-implant of CT26 cells for the harvesting of spleens and tumors for the interrogation of the effect of the combination of merestinib and anti-PD-L1 antibody combination on immune functions. Ten animals per group remain for the duration of the study unless, as pre-defined in the study protocol, the animal is to be sacrificed if the tumor volume exceeds 2500 mm^3 or is ulcerated. Tumor volumes and body weight are measured bi-weekly. Tumor volume is estimated by using the formula: v=l×w2×0.536 where l=larger of measured diameter and w=smaller of perpendicular diameter.
The last dose of drug is received on Day 20, Day 27, Day 27, Day 27 and Day 31, respectively, for group 2, group 3, group 4, group 5 and group 6. On Day 64, about 1 month to 1.5 months after completing drug-dosing, animals that are still alive and with tumor response classified as PR (partial responder) or CR (complete responder) are re-challenged with a new implantation of CT26 tumor cells (1×10^6 cells in HBSS) subcutaneously into the contralateral side of the hind flank (left side) of the animal under anesthesia. The definition of PR and CR is in the statistical method section below. Three naïve animals (study protocol S035116) are used as control and are implanted with the same batch of CT26 tumor cells (1×10^6 cells in HBSS) subcutaneously into the left hind flank of the animal under anesthesia. Tumor growth is monitored and measured in the animals. […]

[2] = animals of 10/group, tumor volume ≤25 mm^3

In the case of `Cc1ccc(C(=O)Nc2ccc(Oc3cc4cnn(C)c4cc3-c3cn[nH]c3)c(F)c2)c(=O)n1-c1ccc(F)cc1` [merestinib, N-(3-fluoro-4-(1-methyl-6-(1H-pyrazol-4-yl)-1H-indazol-5-yloxy)phenyl)-1-(4-fluorophenyl)-6-methyl-2-oxo-1,2-dihydropyridine-3-carboxamide], the “decrease of p-AXL” value (phospho-AXL (p-AXL)) is reported as “more than 60%”, the “tumor growth after cessation of dosing” value ([1]; 12 mg/kg, after the 21 day dosing period, Days 33-40) is reported as “grew exponentially” and the “% Response (% ΔT/C above baseline, % Regression below baseline)” value ([1]; Day 8) is reported as −65.5%. The “Mean Tumor Volume” value ([1]; Day 8) was 64.7, the “% Response (% ΔT/C above baseline, % Regression below baseline)” value ([1]; Day 12) was −29.4% and the “Mean Tumor Volume” value ([1]; Day 12) was 132.5. The “% Response (% ΔT/C above baseline, % Regression below baseline)” value ([1]; Day 15) was 14.6%, the “Mean Tumor Volume” value ([1]; Day 15) was 206.6 and the “% Response (% ΔT/C above baseline, % Regression below baseline)” value ([1]; Day 19) was 53.7%. For the same molecule, the “Mean Tumor Volume” value ([1]; Day 19) was 357.7, the “% Response (% ΔT/C above baseline, % Regression below baseline)” value ([1]; Day 22) was 35.6% and the “Mean Tumor Volume” value ([1]; Day 22) was 491.5. The “% Response (% ΔT/C above baseline, % Regression below baseline)” value ([1]; Day 25) was 31.3%, the “Mean Tumor Volume” value ([1]; Day 25) was 717.0 and the “% Response (% ΔT/C above baseline, % Regression below baseline)” value ([1]; Day 28) was 24.8%. For the same molecule, the “Mean Tumor Volume” value ([1]; Day 28) was 845.3, the “% Response (% ΔT/C above baseline, % Regression below baseline)” value ([1]; Day 33) was 27.1% and the “Mean Tumor Volume mm^3” value ([1]; Day 33) was 1609.0 mm^3. The “T/C %” value ([1]; Day 33) was 31.2%, the “anti-tumor effect as compared to vehicle control” value ([1]; Day 33 / end of dosing) was “significant anti-tumor effect” and the “Difference (Treatment 1 − Treatment 2), log scale tumor volume” value ([1]; Day 33, Treatment 1 = Vehicle control) was 0.529. For the same molecule, the “Mean Tumor Volume” value ([1]; Day 33) was 1608.2, the “Day 33 Treatment Responders GD (Growth Delay)” value ([1]; animals of 10/group) was 1 and the “Day 33 Treatment Responders PD (Progressive Disease)” value ([1]; animals of 10/group) was 9. The “Day 33 Treatment Responders PR (Partial Response)” value ([1]; animals of 10/group) was 0, the “Day 64 Treatment Responders GD (Growth Delay)” value ([1]; animals of 10/group) was 1 and the “Day 64 Treatment Responders PD (Progressive Disease)” value ([1]; animals of 10/group) was 9. For the same molecule, the “Day 64 Treatment Responders PR (Partial Response)” value ([1]; animals of 10/group) was 0, the “Day 33 Treatment Responders CR (Complete and durable Regression)” value [1, 2] was 0 and the “Day 64 Treatment Responders CR (Complete and durable Regression)” value [1, 2] was 0.
